Measured values: publication PMC5881582 (ChemMedChem, 2017)
Read-outs that look alike come from different tables or passages of the source.

Legend:
recombinant human HDAC1 = recombinant human HDAC1 (Homo sapiens, UniProt Q13547); assay: competitive fluorescence-based HDAC deacetylase assay, Boc-L-Lys; type: biochemical; conditions: read-out: IC50 HDAC1; mean ± SD of at least two independent experiments
recombinant human HDAC2 = recombinant human HDAC2 (Homo sapiens, UniProt Q92769); assay: as above; type: biochemical; conditions: for Selectivity HDAC2/HDAC1: HDAC2 IC50 divided by HDAC1 IC50; for IC50: read-out: IC50 HDAC2, mean ± SD of at least two independent experiments
Sequence of recombinant human HDAC2 (Q92769 whole entry): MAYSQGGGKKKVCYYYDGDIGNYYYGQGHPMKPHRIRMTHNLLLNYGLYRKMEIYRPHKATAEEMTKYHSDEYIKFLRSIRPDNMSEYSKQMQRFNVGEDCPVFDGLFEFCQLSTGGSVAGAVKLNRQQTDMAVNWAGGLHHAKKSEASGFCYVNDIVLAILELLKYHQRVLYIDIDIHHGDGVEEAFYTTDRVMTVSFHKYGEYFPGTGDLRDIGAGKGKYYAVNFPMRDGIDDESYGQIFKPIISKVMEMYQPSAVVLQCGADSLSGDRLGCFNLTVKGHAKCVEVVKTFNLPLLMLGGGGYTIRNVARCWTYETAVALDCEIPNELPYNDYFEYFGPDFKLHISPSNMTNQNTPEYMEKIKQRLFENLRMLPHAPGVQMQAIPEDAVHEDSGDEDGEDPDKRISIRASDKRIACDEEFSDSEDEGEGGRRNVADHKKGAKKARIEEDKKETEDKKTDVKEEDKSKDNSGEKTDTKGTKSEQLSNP

recombinant human HDAC3 = recombinant human HDAC3 (Homo sapiens, UniProt O15379); assay: as above; type: biochemical; conditions: for Selectivity HDAC3/HDAC1: HDAC3 IC50 divided by HDAC1 IC50; for IC50: read-out: IC50 HDAC3, mean ± SD of at least two independent experiments
Sequence of recombinant human HDAC3 (O15379 whole entry): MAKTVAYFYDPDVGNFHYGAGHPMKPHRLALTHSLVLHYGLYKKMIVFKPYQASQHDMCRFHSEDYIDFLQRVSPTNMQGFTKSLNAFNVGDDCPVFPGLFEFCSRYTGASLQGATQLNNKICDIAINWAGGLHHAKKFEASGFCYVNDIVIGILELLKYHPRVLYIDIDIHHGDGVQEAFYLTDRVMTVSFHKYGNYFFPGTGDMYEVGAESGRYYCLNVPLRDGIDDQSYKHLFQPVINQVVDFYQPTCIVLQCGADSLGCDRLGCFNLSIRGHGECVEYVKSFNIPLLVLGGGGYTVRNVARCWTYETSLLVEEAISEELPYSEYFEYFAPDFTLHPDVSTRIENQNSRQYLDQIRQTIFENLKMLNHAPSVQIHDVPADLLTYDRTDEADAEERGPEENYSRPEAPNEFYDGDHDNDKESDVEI
Sequence of recombinant human HDAC3 (Q9Y618 395-489 partner limits assumed): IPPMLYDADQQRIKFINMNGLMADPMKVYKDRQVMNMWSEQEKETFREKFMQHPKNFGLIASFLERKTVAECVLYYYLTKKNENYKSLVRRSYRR

[1] = target: T1, purified recombinant human HDAC8 (Homo sapiens, UniProt Q9BY41); assay: fluorescence-based HDAC8 assay, commercially available HDAC substrate; type: biochemical; conditions: for Selectivity HDAC8/HDAC1: HDAC8 IC50 divided by HDAC1 IC50; for IC50: read-out: IC50 HDAC8, mean ± SD of at least two independent experiments
T1 sequence (Q9BY41 1-377): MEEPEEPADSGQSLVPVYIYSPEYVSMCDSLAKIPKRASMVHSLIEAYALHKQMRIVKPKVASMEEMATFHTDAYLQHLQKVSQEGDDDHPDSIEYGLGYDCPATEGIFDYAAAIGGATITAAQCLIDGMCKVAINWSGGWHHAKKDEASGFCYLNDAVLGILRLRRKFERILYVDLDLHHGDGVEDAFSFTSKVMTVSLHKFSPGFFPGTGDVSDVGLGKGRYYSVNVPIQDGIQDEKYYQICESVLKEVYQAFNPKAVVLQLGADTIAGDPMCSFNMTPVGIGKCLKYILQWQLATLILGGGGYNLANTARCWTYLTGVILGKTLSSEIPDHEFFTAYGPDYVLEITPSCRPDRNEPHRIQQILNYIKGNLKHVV

[2] = tested on: acetylation of histones H3 and H4 in HT-29 cells; assay: histone H3 and H4 acetylation by Western blot; type: cell-based, human; conditions: HT-29, 5 µM; for time-dependent increase in acetylation of H3 and H4: 24 h
[3] = tested on: acetylation of histones H3 and H4 in SH-SY5Y cells; assay: histone H3 and H4 acetylation by Western blot; type: cell-based, human; conditions: 5 µM; for acetylation of H3 and H4: 6 h; for time-dependent increase in acetylation of H3 and H4: 24 h
[4] = tested on: acetylation of α-tubulin (HDAC6 substrate) in HT-29 cells; assay: α-tubulin acetylation by Western blot; type: cell-based, human; conditions: HT-29, 5 µM; for acetylation level of α-tubulin: 6 h; for time-dependent increase in acetylation of α-tubulin: 24 h
[5] = tested on: acetylation of α-tubulin (HDAC6 substrate) in SH-SY5Y cells; assay: α-tubulin acetylation by Western blot; type: cell-based, human; conditions: 5 µM, 6 h
[6] = plasma and brain concentrations after i.p. dosing; type: in vivo, Spraugue Dawley rats
microsomal stability [7] = type: in vitro ADME, rat; conditions: after 30 min incubation
microsomal stability [8] = type: in vitro ADME, human; conditions: after 30 min incubation
HT-29 cells = assay: antiproliferative alamarBlue assay; conditions: n=4
SH-SY5Y cells = assay: antiproliferative alamarBlue assay; conditions: n=4
MCF-7 cells = assay: antiproliferative alamarBlue assay; conditions: 10 µM, NA = no inhibition at 10 µM
[9] = read-out: EC50 HT-29 24 h, 24 h
[10] = read-out: EC50 HT-29 48 h, 48 h
[11] = read-out: EC50 SH-SY5Y 24 h, 24 h
[12] = read-out: EC50 SH-SY5Y 48 h, 48 h

Sequence of recombinant human HDAC1 (Q13547 whole entry): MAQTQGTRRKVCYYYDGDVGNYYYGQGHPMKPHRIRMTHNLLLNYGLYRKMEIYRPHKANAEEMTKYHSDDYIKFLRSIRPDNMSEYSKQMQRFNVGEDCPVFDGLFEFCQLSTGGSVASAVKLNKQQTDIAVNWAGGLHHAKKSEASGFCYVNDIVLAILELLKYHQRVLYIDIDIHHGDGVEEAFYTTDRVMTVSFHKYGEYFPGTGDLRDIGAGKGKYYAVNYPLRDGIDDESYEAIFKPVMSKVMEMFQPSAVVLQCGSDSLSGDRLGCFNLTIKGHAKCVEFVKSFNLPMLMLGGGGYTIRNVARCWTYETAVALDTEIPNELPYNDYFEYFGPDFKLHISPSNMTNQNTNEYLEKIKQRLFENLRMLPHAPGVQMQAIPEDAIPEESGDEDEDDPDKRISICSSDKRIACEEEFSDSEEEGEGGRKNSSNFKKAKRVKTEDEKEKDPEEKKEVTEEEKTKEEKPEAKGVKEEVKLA

IC50 (recombinant human HDAC1) [µM] | Selectivity HDAC2/HDAC1 (recombinant human HDAC2) | IC50 (recombinant human HDAC2) [µM] | Selectivity HDAC3/HDAC1 (recombinant human HDAC3) | IC50 (recombinant human HDAC3) [µM] | Selectivity HDAC8/HDAC1 [1] | IC50 [1] [µM] | EC50 (HT-29 cells; [9]) [µM] | EC50 (HT-29 cells; [10]) [µM] | EC50 (SH-SY5Y cells; [11]) [µM] | EC50 (SH-SY5Y cells; [12]) [µM] | Structure (SMILES) | acetylation level of H3 ([2]; 6 h) | time-dependent increase in acetylation of H3 and H4 [2] | acetylation of H3 and H4 [3] | time-dependent increase in acetylation of H3 and H4 [3] | acetylation level of α-tubulin [4] | time-dependent increase in acetylation of α-tubulin [4] | acetylation of α-tubulin [5] | other results
0.061 ± 0.0059 | 4.2 | 0.26 ± 0.015 | 0.41 | 0.025 ± 0.002 | 10 | 0.62 ± 0.042 | > 50 | 2.1 ± 0.17 | > 50 | 1.3 ± 0.39 | O=C(CCCCCCNCc1cc2ccccc2[nH]1)NO [compound 2j] | increased the acetylation level of H3 | time-dependent increase in acetylation of H3 and H4 was observed | acetylation of both H3 and H4 was increased | time-dependent increase in acetylation of H3 and H4 was observed | increased the acetylation level of α-tubulin | time-dependent increase in acetylation of α-tubulin | increased the acetylation of α-tubulin | brain concentration fold above IC50 for HDAC1 ([6]; 20 min): 6.7 fold; brain concentration fold above IC50 for HDAC2 ([6]; 20 min): 1.6 fold; brain concentration fold above IC50 for HDAC3 ([6]; 20 min): 16 fold; plasma concentration fold higher than IC50 for HDAC1 ([6]; 20 min): 230 fold; plasma concentration fold higher than IC50 for HDAC2 ([6]; 20 min): 54 fold; plasma concentration fold higher than IC50 for HDAC3 ([6]; 20 min): 560 fold; plasma concentration fold higher than IC50 for HDAC8 ([6]; 20 min): 23 fold; brain concentration fold higher than the IC50 for class I HDACs ([6]; abstract): > 1.6 fold; plasma concentration fold higher than the IC50 for class I HDACs ([6]; abstract): > 23 fold; Plasma level ([6]; rat, 25 mg/kg i.p., 20 min): 3820 ± 2050 ng/mL; molar concentration in brain ([6]; rat, 25 mg/kg i.p., 20 min): 0.41 µM; molar concentration in plasma ([6]; rat, 25 mg/kg i.p., 20 min): 14 µM; rat brain level ([6]; rat, 25 mg/kg i.p., 20 min): 122 ± 21 ng/mL; Plasma level ([6]; rat, 25 mg/kg i.p., 40 min): 2100 ± 720 ng/mL; rat brain level ([6]; rat, 25 mg/kg i.p., 40 min): 107 ± 15 ng/mL; percent left in RLM (microsomal stability [7]): 85%; percent left in HLM (microsomal stability [8]): 12%; Growth inhibition percentage MCF-7 24 h (MCF-7 cells): 61%
0.039 ± 0.003 | 8.2 | 0.32 ± 0.013 | 1.7 | 0.068 ± 0.002 | 8.2 | 0.32 ± 0.026 | > 50 | 1.1 ± 0.11 | > 50 | 1.2 ± 0.22 | O=C(CCCCCCNCc1ccc2ccccc2c1)NO [compound 2g] | increased the acetylation level of H3 | time-dependent increase in acetylation of H3 and H4 was observed | acetylation of both H3 and H4 was increased | time-dependent increase in acetylation of H3 and H4 was observed | increased the acetylation level of α-tubulin | – | increased the acetylation of α-tubulin | acetylation of H4 ([2]; 6 h): significantly increase acetylation of H4
– | – | – | – | – | – | – | – | – | – | – | O=C(CCCCCCC(=O)Nc1ccccc1)NO [compound 1, SAHA, reference compound] | increased the acetylation level of H3 | unable to cause any significant time-dependent increase | acetylation of both H3 and H4 was increased | time-dependent increase in acetylation of H3 and H4 was observed | increased the acetylation level of α-tubulin | time-dependent increase in acetylation of α-tubulin | increased the acetylation of α-tubulin | –
